Experimental data as given in patent publication US20250262146A1, “PLATFORM NANOPARTICLE TECHNOLOGY FOR SUSTAINED DELIVERY OF HYDROPHOBIC DRUGS” (UNIVERSITY OF MARYLAND, BALTIMORE, priority 2022, published 2025).

Assays:
[1] = Water solubility of ART631, alone and loaded into nanogels; assay type: physicochemical; settings: drug without nanogel
[2] = system: MOLM14 human acute myeloid cells; assay: MTT cytotoxicity assay, MOLM14; assay type: cell-based; settings: concentration 0.0025 mg/mL
Experimental: The MOLM14 AML cell line, MV4;11, and THP1 cell lines were cultured and incubated in RPMI 1640 medium with 10% FBS at 37° C. and air containing 5% CO2. When the cells reached about 70% confluency, the cells were split with a density of 40,000 cells per cm^2. Adult Retinal Pigment Epithelial (ARPE-19) cells were grown in Dulbecco's Modified Eagle Medium (DMEM)/F12 (1:1) with 10% FBS and 1% Penicillin-Streptomycin (Pen-Strep). Dental Pulp Stem Cells (DPSCs) were grown in DMEM with glutamine and 10% FBS and 1% Pen-Strep. A Hemolysis assay kit was purchased from Creative Biolabs™.
The cytotoxicity of plain nanogels, plain SDS nanogels and 2, 5, 10 and 15 wt % ART631-loaded NanoART631 were assessed using thiazolyl blue tetrazolium bromide (MTT) and WST1 assays against MOLM14 human acute myeloid cells, MV4;11 cells, THP1 cells, normal adult retinal pigment epithelium-19 (ARPE-19) cells, and dental pulp stem cells (DPSCs). […] Pure ART631, ART838, 5 and 10 wt % NanoART631 IC50 were determined by adding 5e^−6, 5e^−5, 5e^−4, 6.25e^−4, 0.001, 0.0025, 0.005, 0.01, 0.05, 0.1, 0.2, 0.5, 1, 5, 10 mg·mL-1 of the formulation to MOLM14 AML cells. […] Absorbance was read at 570 nm using a BioTek™ cytation 5 microplate reader for all experiments after removing all the wells contents and then dissolving the formazan crystals in 150 μL of DMSO. […]

[3] = system: 9 human leukemia cell lines; settings: 9 human leukemia cell lines in vitro; cited from earlier work

Row | SMILES | solubility [1] | MOLM14 cells killed [2] | IC50 [3]
1 | C=CCO/N=C(/C[C@H]1O[C@@H]2O[C@@]3(C)CC[C@H]4[C@H](C)CC[C@@H]([C@H]1C)[C@@]24OO3)[C@H]1O[C@@H]2O[C@@]3(C)CC[C@H]4[C@H](C)CC[C@@H]([C@H]1C)[C@@]24OO3 [ART631] | < 10 µg/mL | 67% | < 45 nM
2 | C[C@@H]1CCC2[C@@H](C)[C@@H](CC(COP(=O)(Oc3ccccc3)Oc3ccccc3)C[C@H]3O[C@@H]4O[C@@]5(C)CCC6[C@H](C)CCC([C@H]3C)[C@]64OO5)O[C@@H]3O[C@@]4(C)CCC1[C@@]23OO4 (stereo partly shown) [ART838] | – | 64% | –
